Experimental data from BigSolDB 2.1.

C=C(C)[C@@H]1CC[C@]2(CO)CC[C@]3(C)[C@H](CC[C@@H]4[C@@]5(C)CC[C@H](O)C(C)(C)[C@@H]5CC[C@]43C)[C@@H]12
solubility (mole fraction)
Details | 278.2 K | 283.2 K | 288.2 K | 298.2 K | 308.2 K
in acetone | 0.000556 | – | 0.000866 | 0.00158 | 0.00227
in chloroform | 0.0026 | – | 0.00338 | 0.00437 | 0.00511
in cyclohexane | – | 1.68e-05 | 2.7e-05 | 6.34e-05 | 0.000167
in dichloromethane | 0.00079 | 0.000837 | 0.000897 | 0.000991 | –
in ethanol | 0.000579 | – | 0.000658 | 0.000898 | 0.00113
in ethyl acetate | 0.000963 | – | 0.00155 | 0.00207 | 0.00305
in ethyl formate | 0.000301 | – | 0.000316 | 0.000333 | 0.000395
in methanol | 0.000179 | – | 0.000248 | 0.000328 | 0.000397
in methyl acetate | 0.000598 | – | 0.000705 | 0.000797 | 0.000917
in methyl formate | 0.000187 | 0.000212 | 0.000257 | 0.000316 | –
in n-butanol | 0.00181 | – | 0.00213 | 0.00238 | 0.00271
in n-hexanol | 0.000744 | – | 0.000846 | 0.00102 | 0.00127
in n-pentanol | 0.00095 | – | 0.0012 | 0.00143 | 0.00171
in n-propanol | 0.00113 | – | 0.00127 | 0.00146 | 0.0016
